Laboratory results: BigSolDB 2.1

O=C1C=CC(=O)N1c1cc(F)c(Br)c(F)c1
Settings	solubility (mole fraction)
in THF, 285 K	0.0148
in THF, 288.45 K	0.0162
in THF, 291.55 K	0.0176
in THF, 294.25 K	0.0185
in THF, 297.55 K	0.02
in THF, 302.8 K	0.0228
in THF, 306.65 K	0.0249
in THF, 310.8 K	0.0275
in THF, 315 K	0.0303
in THF, 318.45 K	0.0329
in THF, 321.45 K	0.0355
in THF, 324.65 K	0.0383
in THF, 327.65 K	0.0409
in THF, 330.35 K	0.0437
in THF, 333.65 K	0.047
in THF, 336.25 K	0.0497
in acetone, 287.65 K	0.0071
in acetone, 291.85 K	0.0081
in acetone, 295.55 K	0.0092
in acetone, 298.35 K	0.01
in acetone, 301.25 K	0.0109
in acetone, 304.55 K	0.012
in acetone, 307.6 K	0.0131
in acetone, 309.45 K	0.0139
in acetone, 311.95 K	0.0152
in acetone, 313.95 K	0.0159
in acetone, 316.55 K	0.0174
in acetone, 319.55 K	0.019
in acetone, 321.45 K	0.0202
in acetone, 323.35 K	0.0214
in acetone, 325.15 K	0.0225
in acetonitrile, 291.95 K	0.0028
in acetonitrile, 296.65 K	0.0033
in acetonitrile, 299.25 K	0.0037
in acetonitrile, 302.45 K	0.004
in acetonitrile, 304.85 K	0.0044
in acetonitrile, 307.15 K	0.0049
in acetonitrile, 311.55 K	0.0057
in acetonitrile, 316.95 K	0.007
in acetonitrile, 320.15 K	0.0078
in acetonitrile, 325.45 K	0.0095
in acetonitrile, 328.55 K	0.0107
in acetonitrile, 332.05 K	0.0119
in acetonitrile, 338.65 K	0.0146
in acetonitrile, 341.65 K	0.0165
in acetonitrile, 347.25 K	0.0198
in acetonitrile, 350.15 K	0.0217
in chloroform, 289.25 K	0.0055
in chloroform, 294.85 K	0.0066
in chloroform, 296.65 K	0.0069
in chloroform, 300.85 K	0.0078
in chloroform, 302.75 K	0.0082
in chloroform, 305.65 K	0.0092
in chloroform, 307.45 K	0.0096
in chloroform, 309.55 K	0.0101
in chloroform, 311.65 K	0.0108
in chloroform, 315.35 K	0.012
in chloroform, 318.65 K	0.0132
in chloroform, 322.15 K	0.0146
in chloroform, 324.65 K	0.0157
in chloroform, 326.45 K	0.0166
in chloroform, 328.35 K	0.0176
in chloroform, 330.65 K	0.0188
in ethanol, 288.65 K	0.0003
in ethanol, 293.59 K	0.0003
in ethanol, 299.85 K	0.0004
in ethanol, 305.72 K	0.0006
in ethanol, 311.15 K	0.0008
in ethanol, 318.15 K	0.0011
in ethanol, 324.35 K	0.0014
in ethanol, 327.85 K	0.0016
in ethanol, 332.95 K	0.002
in ethanol, 336.05 K	0.0023
in ethanol, 339.65 K	0.0027
in ethanol, 341.85 K	0.003
in ethanol, 344.15 K	0.0033
in ethanol, 346.15 K	0.0036
in ethanol, 347.75 K	0.0039
in pyridine, 285.55 K	0.0116
in pyridine, 289.66 K	0.0129
in pyridine, 293.95 K	0.0144
in pyridine, 297.15 K	0.0154
in pyridine, 300.85 K	0.0169
in pyridine, 304.65 K	0.0186
in pyridine, 310.05 K	0.0214
in pyridine, 315.65 K	0.0246
in pyridine, 318.65 K	0.0265
in pyridine, 322.55 K	0.0291
in pyridine, 328.45 K	0.0341
in pyridine, 334.15 K	0.0394
in pyridine, 337.95 K	0.0432
in pyridine, 340.65 K	0.0462
in pyridine, 344.85 K	0.0514
in pyridine, 346.35 K	0.0533
